Measured values reported in patent publication US20020136817A1 (priority 1999, published 2002).
Counter-ions that a name gives are not always drawn. Values belong to the compound of their own block, whether it stands above or below them.

Key:
[1] = cited from earlier work
calcium kidney stones = assay: Urinary risk of forming calcium kidney stones in individuals with oxalocalcium kidney stones, before and 15 days after treatment start; format: in vivo, human; details: for drop of the risk of forming calcium stones: 15 days after treatment start, citrate 6.48 g/day (Group II, potassium citrate tablets), phytate 120 mg/day (Group III, dietetic supplement)
Method: These individuals have been divided into three groups: 19 individuals with kidney stones (Group I), 38 individuals with kidney stones (Group II) and 17 individuals with kidney stones (Group III). The urinary risk to form calcium kidney stones was evaluated for each individual before being subjected to any pharmacological treatment. […] 15 days after treatment starting, the urinary risk of forming calcium kidney stones was evaluated again for each individual.

- effect on urine pH (calcium kidney stones; treatment of calcium kidney stones, compared with citrate): does not cause increases of the urine pH
Structure (SMILES): O=P(O)(O)O[C@H]1[C@H](OP(=O)(O)O)[C@@H](OP(=O)(O)O)[C@H](OP(=O)(O)O)[C@@H](OP(=O)(O)O)[C@H]1OP(=O)(O)O [phytate, inositol hexaphosphate]
- levels of phytates in urine and blood without intake ([1]; after 10 days without a phytate intake): drop to practically undetectable values
- maximum urinary excretions as share of the total intake ([1]; diet supplemented with products rich in phytates): 1-5%
- intake above which the amount excreted in urine does not increase ([1]; dose-dependent urinary excretion): 20.9 mg/kg of body weight
- drop of the risk of forming calcium stones (calcium kidney stones): 50%

Structure (SMILES): O=C(O)CC(O)(CC(=O)O)C(=O)O [citrate, potassium citrate, reference compound]
- drop of the risk of forming calcium stones (calcium kidney stones): 52%
